Species: Rattus norvegicus
Test: DrugMatrix - Regimen: Daily Repeat
Type: toxicity, organism-based, Sprague-Dawley
Design: regimen Daily Repeat, gender Male, age 6-8 weeks
Conditions: in vivo, iv, vehicle 100 % SALINE; for ABSOLUTE BASOPHIL / ABSOLUTE EOSINOPHIL / ABSOLUTE LYMPHOCYTE / ABSOLUTE MONOCYTE / ABSOLUTE SEGMENTED NEUTROPHIL / BASOPHIL / EOSINOPHIL / ERYTHROCYTE COUNT / HEMATOCRIT / HEMOGLOBIN / LEUKOCYTE COUNT / LYMPHOCYTE / MEAN CORPUSCULAR HEMOGLOBIN / MEAN CORPUSCULAR HEMOGLOBIN CONCENTRATION / MEAN CORPUSCULAR VOLUME / MONOCYTE / NEUTROPHIL / NUCLEATED RED BLOOD CELLS / PLATELET COUNT: tissue Blood; for ALANINE AMINOTRANSFERASE / ALBUMIN / ALKALINE PHOSPHATASE / ASPARTATE AMINOTRANSFERASE / BLOOD UREA NITROGEN / CARBON DIOXIDE / CHOLESTEROL / CREATINE PHOSPHOKINASE / CREATININE / GLUCOSE / LACTATE DEHYDROGENASE / LIPASE / PHOSPHORUS / POTASSIUM / SODIUM / TOTAL BILIRUBIN / TOTAL PROTEIN / URIC ACID: tissue Plasma
[1] = 0 mg/kg, 72 h, dose level Control, time 3 day
[2] = 0 mg/kg, 120 h, dose level Control, time 5 day
[3] = 18 mg/kg, 72 h, dose level High, time 3 day

N=C(N)c1ccc(OCCCCCOc2ccc(C(=N)N)cc2)cc1 [PENTAMIDINE]
ABSOLUTE BASOPHIL [1]: 0 CELLS/uL
ABSOLUTE EOSINOPHIL [1]: 193.5 CELLS/uL
ABSOLUTE LYMPHOCYTE [1]: 15717.5 CELLS/uL
ABSOLUTE MONOCYTE [1]: 389.33 CELLS/uL
ABSOLUTE SEGMENTED NEUTROPHIL [1]: 1883 CELLS/uL
BASOPHIL [1]: 0%
EOSINOPHIL [1]: 1.17%
ERYTHROCYTE COUNT [1]: 5.68 x10E6/uL
HEMATOCRIT [1]: 35.83%
HEMOGLOBIN [1]: 13.48 G/DL
LEUKOCYTE COUNT [1]: 18.18 x10E3/uL
LYMPHOCYTE [1]: 86.67%
MEAN CORPUSCULAR HEMOGLOBIN [1]: 23.8 pg
MEAN CORPUSCULAR HEMOGLOBIN CONCENTRATION [1]: 37.68 G/DL
MEAN CORPUSCULAR VOLUME [1]: 63.27 fL
MONOCYTE [1]: 2.17%
NEUTROPHIL [1]: 10%
NUCLEATED RED BLOOD CELLS [1]: 0 /100WBC
PLATELET COUNT [1]: 1186.33 x10E3/uL
ALANINE AMINOTRANSFERASE [1]: 68.5 u/L
ALBUMIN [1]: 4.37 G/DL
ALKALINE PHOSPHATASE [1]: 396.33 u/L
ASPARTATE AMINOTRANSFERASE [1]: 92.5 u/L
BLOOD UREA NITROGEN [1]: 18 mg/dL
CARBON DIOXIDE [1]: 24.33 mmol/L
CHOLESTEROL [1]: 67.17 mg/dL
CREATINE PHOSPHOKINASE [1]: 378.67 u/L
CREATININE [1]: 0.19 mg/dL
GLUCOSE [1]: 178.33 mg/dL
LACTATE DEHYDROGENASE [1]: 245.17 u/L
LIPASE [1]: 9.2 u/L
PHOSPHORUS [1]: 12.37 mg/dL
POTASSIUM [1]: 6.48 MEQ/L
SODIUM [1]: 143.28 MEQ/L
TOTAL BILIRUBIN [1]: 0.23 mg/dL
TOTAL PROTEIN [1]: 5.65 G/DL
URIC ACID [1]: 1.6 mg/dL
ABSOLUTE BASOPHIL [2]: 0 CELLS/uL
ABSOLUTE EOSINOPHIL [2]: 27.5 CELLS/uL
ABSOLUTE LYMPHOCYTE [2]: 13593.17 CELLS/uL
ABSOLUTE MONOCYTE [2]: 576 CELLS/uL
ABSOLUTE SEGMENTED NEUTROPHIL [2]: 1836.67 CELLS/uL
BASOPHIL [2]: 0%
EOSINOPHIL [2]: 0.17%
ERYTHROCYTE COUNT [2]: 5.99 x10E6/uL
HEMATOCRIT [2]: 37.42%
HEMOGLOBIN [2]: 13.78 G/DL
LEUKOCYTE COUNT [2]: 16.03 x10E3/uL
LYMPHOCYTE [2]: 85.17%
MEAN CORPUSCULAR HEMOGLOBIN [2]: 23.08 pg
MEAN CORPUSCULAR HEMOGLOBIN CONCENTRATION [2]: 36.83 G/DL
MEAN CORPUSCULAR VOLUME [2]: 62.6 fL
MONOCYTE [2]: 3.5%
NEUTROPHIL [2]: 11.17%
NUCLEATED RED BLOOD CELLS [2]: 0 /100WBC
PLATELET COUNT [2]: 1352.5 x10E3/uL
ALANINE AMINOTRANSFERASE [2]: 49.83 u/L
ALBUMIN [2]: 4.25 G/DL
ALKALINE PHOSPHATASE [2]: 331.33 u/L
ASPARTATE AMINOTRANSFERASE [2]: 86.17 u/L
BLOOD UREA NITROGEN [2]: 19.5 mg/dL
CARBON DIOXIDE [2]: 26.67 mmol/L
CHOLESTEROL [2]: 67.5 mg/dL
CREATINE PHOSPHOKINASE [2]: 346.17 u/L
CREATININE [2]: 0.22 mg/dL
GLUCOSE [2]: 170.67 mg/dL
LACTATE DEHYDROGENASE [2]: 405.5 u/L
LIPASE [2]: 8.83 u/L
PHOSPHORUS [2]: 11.3 mg/dL
POTASSIUM [2]: 6.06 MEQ/L
SODIUM [2]: 143.4 MEQ/L
TOTAL BILIRUBIN [2]: 0.17 mg/dL
TOTAL PROTEIN [2]: 6.22 G/DL
URIC ACID [2]: 1.63 mg/dL
ABSOLUTE BASOPHIL [3]: 0 CELLS/uL
ABSOLUTE EOSINOPHIL [3]: 160 CELLS/uL
ABSOLUTE LYMPHOCYTE [3]: 13847.33 CELLS/uL
ABSOLUTE MONOCYTE [3]: 361.33 CELLS/uL
BASOPHIL [3]: 0%
EOSINOPHIL [3]: 1%
ERYTHROCYTE COUNT [3]: 5.86 x10E6/uL
HEMATOCRIT [3]: 36.7%
HEMOGLOBIN [3]: 13.8 G/DL
LEUKOCYTE COUNT [3]: 15.4 x10E3/uL
LYMPHOCYTE [3]: 90%
MEAN CORPUSCULAR HEMOGLOBIN [3]: 23.57 pg
MEAN CORPUSCULAR HEMOGLOBIN CONCENTRATION [3]: 37.6 G/DL
MEAN CORPUSCULAR VOLUME [3]: 62.63 fL
MONOCYTE [3]: 2.33%
NEUTROPHIL [3]: 6.67%
NUCLEATED RED BLOOD CELLS [3]: 0 /100WBC
PLATELET COUNT [3]: 1444.67 x10E3/uL
ALANINE AMINOTRANSFERASE [3]: 52 u/L
ALBUMIN [3]: 4.13 G/DL
ALKALINE PHOSPHATASE [3]: 303.67 u/L
ASPARTATE AMINOTRANSFERASE [3]: 79 u/L
BLOOD UREA NITROGEN [3]: 19 mg/dL
CARBON DIOXIDE [3]: 26.67 mmol/L
CHOLESTEROL [3]: 75.33 mg/dL
CREATINE PHOSPHOKINASE [3]: 308.67 u/L
CREATININE [3]: 0.22 mg/dL
GLUCOSE [3]: 158.33 mg/dL
LACTATE DEHYDROGENASE [3]: 129.67 u/L
LIPASE [3]: 8.67 u/L
PHOSPHORUS [3]: 11.17 mg/dL
POTASSIUM [3]: 6.46 MEQ/L
SODIUM [3]: 142 MEQ/L
TOTAL BILIRUBIN [3]: 0.23 mg/dL
TOTAL PROTEIN [3]: 6.13 G/DL
URIC ACID [3]: 1.7 mg/dL

From ChEMBL document CHEMBL3885881, “DrugMatrix”
